In general, IC50 refers to the midpoint of a concentration-inhibition curve. By EC50 is commonly meant the midpoint of the concentration-response curve.

In one assay the test system is Vero. Kind of assay: cells. As to conditions: Chlorocebus sabaeus. The format is functional, cell-based.
Assay [1] deals with T1, Sentrin-specific protease 6 (Homo sapiens, UniProt Q9GZR1).
T1 sequence (Q9GZR1 whole entry): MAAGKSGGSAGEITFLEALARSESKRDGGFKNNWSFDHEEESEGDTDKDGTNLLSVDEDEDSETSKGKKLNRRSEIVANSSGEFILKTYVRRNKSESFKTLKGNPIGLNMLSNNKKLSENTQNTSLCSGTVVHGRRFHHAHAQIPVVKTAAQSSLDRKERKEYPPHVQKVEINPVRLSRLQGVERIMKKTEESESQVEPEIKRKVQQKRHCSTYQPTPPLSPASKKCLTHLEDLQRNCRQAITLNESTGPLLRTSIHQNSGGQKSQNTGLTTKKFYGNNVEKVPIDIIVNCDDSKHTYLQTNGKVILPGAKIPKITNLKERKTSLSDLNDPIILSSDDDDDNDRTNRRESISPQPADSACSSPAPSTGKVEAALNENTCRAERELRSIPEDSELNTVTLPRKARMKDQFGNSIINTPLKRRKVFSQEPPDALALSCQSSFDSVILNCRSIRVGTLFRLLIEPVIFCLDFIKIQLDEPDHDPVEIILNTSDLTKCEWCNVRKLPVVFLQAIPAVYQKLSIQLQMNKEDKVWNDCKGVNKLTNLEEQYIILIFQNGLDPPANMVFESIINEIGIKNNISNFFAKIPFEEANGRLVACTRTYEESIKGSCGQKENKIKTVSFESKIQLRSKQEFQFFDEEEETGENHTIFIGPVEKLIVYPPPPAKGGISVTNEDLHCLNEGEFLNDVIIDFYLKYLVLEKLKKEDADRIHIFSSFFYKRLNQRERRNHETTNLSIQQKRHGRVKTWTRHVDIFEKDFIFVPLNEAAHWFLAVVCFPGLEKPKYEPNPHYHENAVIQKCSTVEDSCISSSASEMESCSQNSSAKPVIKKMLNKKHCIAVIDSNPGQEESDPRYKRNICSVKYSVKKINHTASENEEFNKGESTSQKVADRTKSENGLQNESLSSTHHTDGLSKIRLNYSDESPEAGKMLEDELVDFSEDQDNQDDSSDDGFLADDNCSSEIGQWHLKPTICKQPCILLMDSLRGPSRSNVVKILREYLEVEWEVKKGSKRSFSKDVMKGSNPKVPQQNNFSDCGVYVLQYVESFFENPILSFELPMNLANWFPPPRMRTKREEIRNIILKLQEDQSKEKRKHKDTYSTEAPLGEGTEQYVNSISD
Kind of assay: SAR Analysis of small molecule inhibitors of Sentrin-specific protease 6 (SENP6) using a Luminescent assay. [Related pubchem assays (depositor defined):AID2582, AID2599]. The format is functional.

Assay [2] deals with C-C chemokine receptor type 6 (Homo sapiens, UniProt P51684). In words: CCR6 receptor antagonists, dose response, cell-based, luminescent beta-arrestin readout (AID 504728). The format is functional.
Sequence of C-C chemokine receptor type 6 (P51684 whole entry): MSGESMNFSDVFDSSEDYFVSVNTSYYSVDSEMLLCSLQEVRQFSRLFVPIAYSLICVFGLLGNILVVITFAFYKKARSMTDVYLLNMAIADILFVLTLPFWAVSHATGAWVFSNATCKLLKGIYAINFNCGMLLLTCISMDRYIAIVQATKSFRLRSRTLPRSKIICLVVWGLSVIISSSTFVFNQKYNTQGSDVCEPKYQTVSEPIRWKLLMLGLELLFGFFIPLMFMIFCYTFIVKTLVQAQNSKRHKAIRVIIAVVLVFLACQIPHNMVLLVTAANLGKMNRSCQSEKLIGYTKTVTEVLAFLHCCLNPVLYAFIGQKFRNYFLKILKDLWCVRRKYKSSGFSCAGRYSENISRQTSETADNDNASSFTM
The target of assay [3] is T2, Heat shock factor protein 1 (Mus musculus, UniProt P38532).
T2 sequence (P38532 whole entry): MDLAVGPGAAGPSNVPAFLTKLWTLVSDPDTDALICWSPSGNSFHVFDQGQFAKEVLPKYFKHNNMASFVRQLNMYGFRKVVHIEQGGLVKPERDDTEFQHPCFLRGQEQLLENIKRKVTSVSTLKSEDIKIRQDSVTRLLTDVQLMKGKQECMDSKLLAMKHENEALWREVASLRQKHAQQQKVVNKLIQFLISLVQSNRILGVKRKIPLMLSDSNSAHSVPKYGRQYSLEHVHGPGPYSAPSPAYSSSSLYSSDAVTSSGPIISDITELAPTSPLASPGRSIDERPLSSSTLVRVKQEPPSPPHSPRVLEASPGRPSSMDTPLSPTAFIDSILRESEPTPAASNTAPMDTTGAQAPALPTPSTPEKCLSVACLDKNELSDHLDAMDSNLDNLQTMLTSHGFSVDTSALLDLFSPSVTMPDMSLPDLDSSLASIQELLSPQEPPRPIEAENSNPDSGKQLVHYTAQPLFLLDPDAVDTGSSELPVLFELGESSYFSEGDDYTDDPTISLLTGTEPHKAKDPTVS
In words: inhibition of MG132-induced HSE-luciferase signal, confirmation, cell-based, NIH3T3, luminescence, dose retest (AID 2382).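 Further: NIH3T3 fibroblasts with HSF1-driven luciferase reporter stressed by proteasome inhibitor MG132; luminescence from HSF1-driven luciferase expression after 8 hours of MG132 stress.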 The format is functional.

Assay [4] in a line: cytotoxicity toward DRD oncogenic fibroblasts, dose response, cell-based, non-viral oncogenic, luminescence (AID 1934). The following applies: Homo sapiens. The format is functional.
Assay [5] can be described thus: cytotoxicity in HEK-293T cells, dose response, cytotoxicity control for TCR NF-kB inhibitor project, luminescence, T-cell screen hits (AID 489026).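 Further: cells exposed to compound about 14 hours before the viability readout.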 The format is functional, cell-based.
The next assay has as its system BJ. In words: cytotoxicity toward Ras-transformed BJeLR fibroblasts, dose response, cell-based, alamar blue fluorescence, cherrypicked samples (AID 2631).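 Further: confirmatory dose-response assay in RAS-dependent BJ fibroblasts engineered with TERT, LT and ST, with cytotoxicity read by fluorescence.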 The format is functional. The following applies: Homo sapiens. A general note: Alamar Blue is a resazurin reagent that responds to reducing activity.

Each structure is given as a SMILES string. The source made the active and inactive calls.

In the case of `O=C(Nc1ccc(C#Cc2ccccc2)cc1)C1CC1`, the IC50 is > 12.5 µM (active) in the assay on Vero, > 99 µM (inactive) in assay [1] and 7.09 µM (active) in “cells”.
As for `Cc1ccc(NC2=C/C(=N/S(=O)(=O)c3cccs3)c3ccccc3C2=O)cc1`, the IC50 in assay [2] is > 66.6 µM (inactive).
For the compound `COC(=O)C[C@]1(C(=O)OC)CN(C#N)N(c2ccc(Cl)cc2)C12c1ccccc1-c1ccccc12`, the values for the EC50 (in assay [3]; in assay [4]; with BJ) were 2.74 µM (active), 3.62 µM (active) and 1.07 µM (active), respectively. For the same compound, the IC50 in assay [5] was > 80 µM (inactive).

The values above are taken from ChEMBL document CHEMBL1201862, “PubChem BioAssay data set” (2004).
